This is an account of results in the Kinase Knowledgebase extract (Sharma et al. 2016).

As usually defined, the IC50 is the midpoint of a concentration-inhibition curve.

Molecules are shown by their SMILES. Values after ≈ are worked out from the molar mass of the structure shown.

This assay concerns the target EGFR (UniProt P00533).

EGFR, sequence (P00533 whole entry, looked up): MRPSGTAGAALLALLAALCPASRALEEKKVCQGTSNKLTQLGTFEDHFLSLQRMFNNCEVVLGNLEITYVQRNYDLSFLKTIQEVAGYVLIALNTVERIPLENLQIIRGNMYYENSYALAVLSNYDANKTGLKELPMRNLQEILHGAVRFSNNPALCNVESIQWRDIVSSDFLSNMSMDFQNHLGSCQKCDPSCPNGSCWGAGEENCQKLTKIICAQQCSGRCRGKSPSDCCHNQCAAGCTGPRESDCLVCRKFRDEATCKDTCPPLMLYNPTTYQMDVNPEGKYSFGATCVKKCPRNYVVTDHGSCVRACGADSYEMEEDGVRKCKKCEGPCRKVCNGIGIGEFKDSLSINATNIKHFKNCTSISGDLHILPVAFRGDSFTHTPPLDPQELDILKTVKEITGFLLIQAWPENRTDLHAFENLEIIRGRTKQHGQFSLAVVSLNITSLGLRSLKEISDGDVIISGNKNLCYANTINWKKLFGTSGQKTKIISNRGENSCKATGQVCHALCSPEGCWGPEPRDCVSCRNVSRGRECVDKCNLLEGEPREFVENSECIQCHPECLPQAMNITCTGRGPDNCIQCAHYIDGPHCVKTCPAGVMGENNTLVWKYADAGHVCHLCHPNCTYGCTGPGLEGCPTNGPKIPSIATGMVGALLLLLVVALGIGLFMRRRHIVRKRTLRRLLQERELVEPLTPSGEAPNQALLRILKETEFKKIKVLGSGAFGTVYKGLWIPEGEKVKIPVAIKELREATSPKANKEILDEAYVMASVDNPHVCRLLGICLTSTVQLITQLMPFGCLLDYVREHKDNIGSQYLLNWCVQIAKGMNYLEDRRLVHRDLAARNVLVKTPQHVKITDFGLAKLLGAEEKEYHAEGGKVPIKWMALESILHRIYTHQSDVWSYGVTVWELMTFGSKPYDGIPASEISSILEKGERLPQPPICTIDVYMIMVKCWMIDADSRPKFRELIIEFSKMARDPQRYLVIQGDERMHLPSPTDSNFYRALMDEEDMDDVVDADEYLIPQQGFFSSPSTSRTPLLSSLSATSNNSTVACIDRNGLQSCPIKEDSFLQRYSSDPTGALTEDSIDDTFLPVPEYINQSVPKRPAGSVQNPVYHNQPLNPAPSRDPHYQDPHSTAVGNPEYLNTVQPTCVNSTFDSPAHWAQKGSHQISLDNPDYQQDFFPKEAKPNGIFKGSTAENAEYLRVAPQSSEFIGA

`COc1ccc(Nc2ncnc(NCc3ccc(C)c(Cl)c3)n2)cc1OC` returned an IC50 of over 4.5 mg/L.

On to `Oc1cccc(Nc2ncnc(-c3ccccc3)n2)c1`, for which the half-maximal inhibitory concentration (IC50) was over 4.5 mg/L.

In turn, `COc1cc(Nc2ncnc(Nc3ccc(F)cc3)n2)cc(OC)c1OC` displayed an IC50 of 0.4 to 2.4 mg/L (≈ 1.08 to 6.46 µM).

Molecule `COc1cccc(Nc2ncnc(Nc3cc(-c4ccccc4)n[nH]3)n2)c1` returned an IC50 of 0.4 to 2.4 mg/L (≈ 1.11 to 6.68 µM).

`O=c1[nH]c2ccccc2n1-c1ncnc(Nc2cc(C(F)(F)F)cc(C(F)(F)F)c2)n1` displayed an IC50 of over 4.5 mg/L.

Turning to `COc1cc(Nc2ncnc(Nc3cc(-c4cccc(C(F)(F)F)c4)n[nH]3)n2)cc(OC)c1OC`, the IC50 was in the range of 2.4 to 3.5 mg/L (≈ 4.92 to 7.18 µM).

Molecule `NC(=O)c1cccc(Nc2ncnc(-c3cccs3)n2)c1` displayed an IC50 of over 4.5 mg/L.

In turn, `COc1cc(Nc2ncnc(-c3ccsc3)n2)cc(OC)c1OC` gave an IC50 of over 4.5 mg/L.

`COc1cc(Nc2ncnc(N(C)c3ccc(Cl)cc3)n2)cc(OC)c1OC`: the IC50 is under 0.4 mg/L.

For `NS(=O)(=O)c1ccc(CNc2ncnc(-n3c(=O)[nH]c4ccccc43)n2)cc1`, the IC50 is over 4.5 mg/L.

`O=C(O)c1cccc(Nc2ncnc(-n3c(NCc4ccccc4)nc4ccccc43)n2)c1` yielded a half-maximal inhibitory concentration (IC50) of under 0.4 mg/L.

Consider `O=C(O)Cc1cccc(Nc2ncnc(-c3cccnc3Nc3ccccc3)n2)c1`, for which the IC50 lay in the range of 0.4 to 2.4 mg/L (≈ 1 to 6.02 µM).

In turn, `c1ccc(Nc2ncccc2-c2ncnc(Nc3cccc(Cn4ccnn4)c3)n2)cc1` displayed a concentration for half-maximal inhibition (IC50) of over 4.5 mg/L.

With `COc1cc(Nc2ncnc(-n3nc(-c4ccccc4)cc3N)n2)cc(OC)c1OC`, the IC50 is over 4.5 mg/L.

Turning to `COC(=O)c1ccc(-c2cc(Nc3ncnc(NCc4ccccc4F)n3)[nH]n2)cc1`, the half-inhibitory concentration (IC50) was over 4.5 mg/L.

`COc1cc(Nc2ncnc(Nc3cccc(C(C)=O)c3)n2)cc(OC)c1OC` showed an IC50 of 0.4 to 2.4 mg/L (≈ 1.01 to 6.07 µM).

As for `COc1ccc(Nc2ncnc(N(C)c3cccc(Cl)c3)n2)cc1`, the half-maximal inhibitory concentration (IC50) is under 0.4 mg/L.

With `CCOC(=O)C(Cc1cccc(Nc2ncnc(Nc3cc(-c4ccco4)n[nH]3)n2)c1)(NC(C)=O)C(=O)OCC`, the half-maximal inhibitory concentration (IC50) was over 4.5 mg/L.

Molecule `COc1cc(Nc2ncnc(-c3cccnc3Nc3cccc(OCc4ccccc4)c3)n2)cc(OC)c1OC` gave an IC50 of 3.5 to 4.5 mg/L (≈ 6.52 to 8.39 µM).

Turning to `COc1ccccc1Nc1ncnc(-c2ccccc2)n1`, the half-inhibitory concentration (IC50) is over 4.5 mg/L.

Consider `COc1cc(Nc2ncnc(-n3c(N)nc4ccccc43)n2)cc(OCCN2CCOCC2)c1OC`, for which the concentration for half-maximal inhibition (IC50) was over 4.5 mg/L.

`CCOc1ccc(Nc2ncnc(Nc3ccc(OCc4ccccc4)cc3)n2)cc1OCC` showed a concentration for half-maximal inhibition (IC50) of 0.4 to 2.4 mg/L (≈ 0.874 to 5.25 µM).

`COc1cccc(Nc2ncccc2-c2ncnc(Nc3cc(OC)c(OC)c(OC)c3)n2)c1` gave a concentration for half-maximal inhibition (IC50) of 3.5 to 4.5 mg/L (≈ 7.6 to 9.77 µM).

The molecule `COc1cc(Nc2ncnc(-n3c(Nc4ccc(Cl)cc4)nc4ccccc43)n2)cc(OC)c1OC` gave an IC50 of over 4.5 mg/L.

Regarding `COc1cc(Nc2ncnc(-n3c(NCc4ccc(C)cc4)nc4ccccc43)n2)cc(OC)c1OC`, the half-inhibitory concentration (IC50) was over 4.5 mg/L.

`COC(=O)c1ccc(-c2cc(Nc3ncnc(NCc4cccnc4)n3)[nH]n2)cc1`: the IC50 was over 4.5 mg/L.

Molecule `COc1ccc(Nc2ncnc(Nc3ccc(C)c(O)c3)n2)cc1OC` came in with a 50% inhibitory concentration (IC50) of under 0.4 mg/L.

`O=c1[nH]c2ccccc2n1-c1ncnc(Nc2cccc(-c3cnco3)c2)n1` had a concentration for half-maximal inhibition (IC50) of 0.4 to 2.4 mg/L (≈ 1.08 to 6.46 µM).

In turn, `COc1cc(Nc2ncnc(Nc3ccc(C(N)=O)cc3)n2)cc(OC)c1OC` had an IC50 of over 4.5 mg/L.

With `CN(c1cccc(Cl)c1)c1ncnc(Nc2ccc(CC(=O)O)cc2)n1`, the IC50 was under 0.4 mg/L.

The molecule `Cc1ccc2c(c1)CCCN2c1ncnc(Nc2cc[nH]n2)n1` registered an IC50 of 0.4 to 2.4 mg/L (≈ 1.3 to 7.81 µM).

Molecule `COc1cc(Nc2ncnc(-c3cccnc3NCCN3CCCCC3)n2)cc(OC)c1OC` yielded a half-inhibitory concentration (IC50) of over 4.5 mg/L.

The molecule `COc1cc(Nc2ncnc(-n3c(NCc4ccccn4)nc4ccccc43)n2)cc(OC)c1OC` showed an IC50 of over 4.5 mg/L.

`COCCOc1ccc(Nc2ncnc(Nc3ccc(C)c(O)c3)n2)cc1OCCOC`: the IC50 is 0.4 to 2.4 mg/L (≈ 0.906 to 5.44 µM).

Molecule `CC(C)(C)c1cc(Nc2ncnc(Nc3cccc(CC(=O)O)c3)n2)[nH]n1` returned an IC50 of 0.4 to 2.4 mg/L (≈ 1.09 to 6.53 µM).

`COc1cc(Nc2ncnc(N3CCN(c4ncccn4)CC3)n2)cc(OC)c1OC` gave an IC50 of over 4.5 mg/L.

For `COc1cc(Nc2ncnc(-n3ccnc3Cl)n2)cc(OC)c1OC`, the IC50 was in the range of 0.4 to 2.4 mg/L (≈ 1.1 to 6.62 µM).

`Cc1ccc2c(c1)CCCN2c1ncnc(NCc2ccccn2)n1` came in with an IC50 of over 4.5 mg/L.

`Cc1ccc2c(c1)CCCN2c1ncnc(Nc2ccc(F)c(F)c2)n1`: the IC50 lay in the range of 0.4 to 2.4 mg/L (≈ 1.13 to 6.79 µM).

Take `COc1ccc(Nc2ncnc(Nc3ccc4c(c3)C(=O)OC4)n2)cc1OC`: the IC50 was 2.4 to 3.5 mg/L (≈ 6.33 to 9.23 µM).

Consider `CCN(CC)CCN(C)c1ncnc(Nc2ccc(OC)c(OC)c2)n1`, for which the IC50 is over 4.5 mg/L.

The molecule `CNS(=O)(=O)Cc1ccc(Nc2ncnc(Nc3cc(-c4ccc(C(=O)OC)cc4)n[nH]3)n2)cc1` showed an IC50 of 2.4 to 3.5 mg/L (≈ 4.85 to 7.08 µM).

`COc1cc(Nc2ncnc(Nc3cccc(C(=O)O)c3)n2)cc(OC)c1OC` gave an IC50 of under 0.4 mg/L.

Molecule `COc1ccc(Nc2ncnc(Nc3ccccc3C)n2)cc1OC` registered an IC50 of under 0.4 mg/L.

On to `COc1cc(Nc2ncnc(-n3c(Nc4cccc(C(N)=O)c4)nc4ccccc43)n2)cc(OC)c1OC`, for which the half-maximal inhibitory concentration (IC50) was over 4.5 mg/L.

`COc1cc(Nc2ncnc(-n3c(NCCc4ccncc4)nc4ccccc43)n2)cc(OC)c1OC` had an IC50 of over 4.5 mg/L.

`COc1cc(Nc2ncnc(-c3cccnc3NCc3ccc(F)cc3)n2)cc(OC)c1OCCN1CCOCC1` displayed an IC50 of 2.4 to 3.5 mg/L (≈ 4.27 to 6.23 µM).
